Data taken from patent publication US3963707A, “Novel N-nitroso compounds, compositions containing such compounds, processes for their preparation and methods of treatment therewith, and novel intermediates” (Aktiebolaget Leo, priority 1973, dated 1976).

Experiments:
[1] = tested on: Ehrlich ascites tumour, ELD hyperdiploid (46 chromosomes); assay: Ehrlich ascites tumour test (LD50, ED50, therapeutic index); format: in vivo, SPF NMRI mice; details: additional compounds, result in words
Excerpt: The high activity against tumours is further illustrated in these experiments by comparisons with known antitumour agents used in the therapy. The therapeutic indexes (T.I.), i.e. the ratios LD50/ED50, are in all comparisons much more favourable with the compounds of the present invention.
LD50 is the dose that caused a 50 percent lethality of the animals, ED50 is the dose that caused a 50 percent reduction of tumour size.
(§1) The experimental design and the interpretation of the results have been in accordance with the standards set by the CCNSC (Cancer Chemotherapy Reports, January 1959 and December 1962), and by the DR&D (Cancer Chemotherapy Reports, September 1972, Vol. 3, No. 2).
(§2) The way of administration is by the intraperitoneal route (i.p.) in each case.
Ehrlich ascites tumour, ELD hyperdiploid (46 chromosomes)
Experimental animals: SPF NMRI mice.
Tumour implant: 2 × 10^6 tumour cells i.p.
(§3) Therapy: One injection i.p. on the day following implantation.
Termination: The animals are killed on the 8th day.
Evaluation: Weights of tumours of test animals compared with those of control animals.

[2] = tested on: Lymphatic leukemia L 1210; assay: Lymphatic leukemia L 1210 test; format: in vivo, CDF1 (C3H×DBA/2)F1 mice; details: for Effect %: survival time as percentage of control; for Weight change v: vs control up to the 5th day; for effect on L 1210: result in words, dose not given
Excerpt: as §1, §2
Lymphatic leukemia L 1210
Experimental animals: CDF1 (C3H×DBA/2)F1 mice.
Tumour implant: 10^5 tumour cells i.p.
as §3
Evaluation: a) The survival time of the test animals (t) expressed as the percentage of that of control animals (c).
b. Weight change in the test animals (T) compared with that of the control animals (c) up to the 5th day.
c. The mortality rate must not exceed 35% in the test animals on the 5th day of therapy.

Hepatoma AH 130 = assay: in vivo; parameters: species or system SPF Wistar rats; details: for T.I. (LD50/ED50): Hepatoma AH 130, rats, i.p.; for ED50: Rattus norvegicus, ip, 192 h, one injection i.p. day after implantation, dose causing 50 percent reduction of tumour size
Outline: (§4)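 Therapeutic index (LD50/ED50) was derived from tumour weight against controls at day-8 sacrifice, with ED50 the dose giving 50% tumour reduction. Rats (SPF Wistar) bore 5 × 10^6 hepatoma cells implanted intraperitoneally. A single i.p. injection followed on the day after implantation.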

in vivo = assay: in vivo; parameters: species or system SPF Wistar rats; details: rat, in vivo, ip; one injection i.p., rats; dose causing 50 percent lethality
Outline: as §4

[3] = tested on: Walker carcinosarcoma 256; assay: Walker carcinosarcoma 256 test; format: in vivo, Sprague Dawley rats; details: for Lethality: died/used animals
Excerpt: as §1, §2
Walker carcinosarcoma 256
Experimental animals: Sprague Dawley rats.
Tumour implant: Tumour pieces with 2-4 mm diameter, subcutaneously.
Therapy: Daily injections i.p. for 5 days starting on the day following implantation.
Termination: The animals are killed on the 9th day.
Evaluation: Weights of tumours of test animals are compared with those of control animals. The differences, in per cent of weights of tumours of control animals, give per cent tumour inhibition.
The lethality is given as the number of animals which died in the experiment/the number of animals used in the experiments.

| SMILES | anti-tumor activity [1] | T.I. (LD50/ED50) (Hepatoma AH 130) | ED50 (Hepatoma AH 130) [mg/kg] | LD50 (in vivo) [mg/kg] | Tumour inhibition % ([3]; 5×125 mg/kg i.p.) [%] | Lethality ([3]; 5×125 mg/kg i.p.) | further results |
| --- | --- | --- | --- | --- | --- | --- | --- |
| C[C@]12CC[C@H]3[C@@H](CCC4=CC(=O)CC[C@@H]43)[C@@H]1CC[C@@H]2OC(=O)N(CCCl)N=O [19-nortestosterone-17β-N-(2-chloroethyl)-N-nitroso carbamate] | exhibit anti-tumor activity | 300 | 0.5 | 150 | – | – | Mortality ([2]; 1×31 mg/kg i.p.): 0/40; Effect % ([2]; 1×31 mg/kg i.p.): 142%; Weight change v ([2]; 1×31 mg/kg i.p.): -1.0 g; Tumour inhibition % ([3]; 5×63 mg/kg i.p.): 65%; Lethality ([3]; 5×63 mg/kg i.p.): 1/8 |
| CC(=O)O[C@H]1CC[C@H]2[C@@H]3CC=C4C[C@@H](OC(=O)N(CCCl)N=O)CC[C@]4(C)[C@H]3CC[C@]12C [androstenediol-17β-acetate-3β-N-(2-chloroethyl)-N-nitroso carbamate] | exhibit anti-tumor activity | – | 0.25 | > 250 | 59 | 0/8 | – |
| C[C@]12CC[C@H](OC(=O)N(CCCCl)N=O)CC1=CC[C@@H]1[C@@H]2CC[C@]2(C)C(=O)CC[C@@H]12 [dehydroepiandrosterone-3β-N-(3-chloropropyl)-N-nitroso carbamate] | exhibit anti-tumor activity | > 2.7 | 375 | > 1000 | – | – | Tumour inhibition % ([3]; 5×500 mg/kg i.p.): 24%; Lethality ([3]; 5×500 mg/kg i.p.): 0/8 |
| CC(=O)[C@H]1CC[C@H]2[C@@H]3CC=C4C[C@@H](OC(=O)N(CCCl)N=O)CC[C@]4(C)[C@H]3CC[C@]12C [pregnenolone-3β-N-(2-chloroethyl)-N-nitroso carbamate] | exhibit anti-tumor activity | > 526 | 1.9 | > 1000 | – | – | Mortality ([2]; 1×500 mg/kg i.p.): 0/20; Effect % ([2]; 1×500 mg/kg i.p.): 136%; Weight change v ([2]; 1×500 mg/kg i.p.): -0.8 g; Tumour inhibition % ([3]; 5×500 mg/kg i.p.): 55%; Lethality ([3]; 5×500 mg/kg i.p.): 0/8 |
| C[C@]12CC[C@@H]3c4ccc(OC(=O)N(CCCl)N=O)cc4CC[C@H]3[C@@H]1CCC2=O [estrone-3-N-(2-chloroethyl)-N-nitroso carbamate] | exhibit anti-tumor activity | > 2.000 | 0.5 | > 1000 | 75 | 0/8 | effect on L 1210 [2]: show a significant effect |
| COc1ccc2c(c1)CC[C@@H]1[C@@H]2CC[C@]2(C)[C@@H](OC(=O)N(CCCl)N=O)CC[C@@H]12 [estradiol-3-methylether-17β-N-(2-chloroethyl)-N-nitroso carbamate] | exhibit anti-tumor activity | > 2.000 | 0.5 | > 1000 | – | – | Tumour inhibition % ([3]; 5×250 mg/kg i.p.): 66%; Lethality ([3]; 5×250 mg/kg i.p.): 0/8 |
| CC(=O)O[C@H]1CC[C@H]2[C@@H]3CCc4cc(OC(=O)N(CCCl)N=O)ccc4[C@H]3CC[C@]12C [estradiol-17β-acetate-3-N-(2-chloroethyl)-N-nitroso carbamate] | exhibit anti-tumor activity | > 4.000 | < 0.25 | > 1000 | 69 | 1/8 | – |
| CC(C)CCC[C@@H](C)[C@H]1CC[C@H]2[C@@H]3CC=C4C[C@@H](OC(=O)N(CCCl)N=O)CC[C@]4(C)[C@H]3CC[C@]12C [cholesterol-3β-N-(2-chloroethyl)-N-nitroso carbamate] | exhibit anti-tumor activity | > 5 | 200 | > 1000 | – | – | Tumour inhibition % ([3]; 5×500 mg/kg i.p.): 39%; Lethality ([3]; 5×500 mg/kg i.p.): 0/8 |
| C[C@]12CC[C@H]3[C@@H](CC=C4C[C@@H](OC(=O)N(CCCl)N=O)CC[C@@]43C)[C@@H]1CC[C@@H]2OC(=O)N(CCCl)N=O [androstenediol-3β,17β-bis-/N-(2-chloroethyl)-N-nitroso carbamate/] | exhibit anti-tumor activity | – | 0.25 | > 250 | – | – | – |
| C[C@]12CCC(=O)C[C@@H]1CC[C@@H]1[C@@H]2CC[C@]2(C)[C@@H](OC(=O)N(CCCl)N=O)CC[C@@H]12 [dihydrotestosterone-17β-N-(2-chloroethyl)-N-nitroso carbamate] | exhibit anti-tumor activity | – | 1 | > 1000 | – | – | Mortality ([2]; 1×125 mg/kg i.p.): 0/20; Effect % ([2]; 1×125 mg/kg i.p.): 135%; Weight change v ([2]; 1×125 mg/kg i.p.): -0.9 g; Tumour inhibition % ([3]; 5×250 mg/kg i.p.): 51%; Lethality ([3]; 5×250 mg/kg i.p.): 0/8 |
| C[C@]12CC[C@@H](OC(=O)N(CCCl)N=O)C[C@@H]1CC[C@@H]1[C@@H]2CC[C@]2(C)[C@@H](OC(=O)N(CCCl)N=O)CC[C@@H]12 [androstanediol-3α,17β-bis/N-(2-chloroethyl)-N-nitroso carbamate/] | exhibit anti-tumor activity | – | 1 | > 1000 | – | – | effect on L 1210 [2]: show a significant effect; Tumour inhibition % ([3]; 5×250 mg/kg i.p.): 75%; Lethality ([3]; 5×250 mg/kg i.p.): 1/8 |
| C[C@]12CC[C@H](OC(=O)N(CCCl)N=O)C[C@@H]1CC[C@@H]1[C@@H]2CC[C@]2(C)C(=O)CC[C@@H]12 [epiandrosterone-3β-N-(2-chloroethyl)-N-nitroso carbamate] | exhibit anti-tumor activity | > 5.000 | 0.2 | > 1000 | 47 | 0/8 | Mortality ([2]; 1×250 mg/kg i.p.): 0/20; Effect % ([2]; 1×250 mg/kg i.p.): 130%; Weight change v ([2]; 1×250 mg/kg i.p.): -1.6 g |
| CC(=O)O[C@H]1CC[C@@]2(C)C(=CC[C@H]3[C@@H]4CC[C@H](OC(=O)N(CCCl)N=O)[C@@]4(C)CC[C@@H]32)C1 [androstenediol-3β-acetate-17β-N-(2-chloroethyl)-N-nitroso carbamate] | exhibit anti-tumor activity | – | 0.25 | > 250 | 41 | 0/8 | – |
| C[C@]12CC[C@@H]3c4ccc(OC(=O)N(CCCl)N=O)cc4CC[C@H]3[C@@H]1CC[C@@H]2O [17β-estradiol-3-N-(2-chloroethyl)-N-nitroso carbamate] | exhibit anti-tumor activity | > 4.000 | < 0.25 | > 1000 | – | – | Tumour inhibition % ([3]; 5×31 mg/kg i.p.): 86%; Lethality ([3]; 5×31 mg/kg i.p.): 0/8 |
| C[C@]12CC[C@@H]3c4ccc(OC(=O)c5ccccc5)cc4CC[C@H]3[C@@H]1CC[C@@H]2OC(=O)N(CCCl)N=O [estradiol-3-benzoate-17β-N-(2-chloroethyl)-N-nitroso carbamate] | exhibit anti-tumor activity | > 16 | < 63 | > 1000 | 73 | 0/8 | – |
| C[C@]12CC[C@H](OC(=O)N(CCBr)N=O)CC1=CC[C@@H]1[C@@H]2CC[C@]2(C)C(=O)CC[C@@H]12 [dehydroepiandrosterone-3β-N-(2-bromoethyl)-N-nitroso carbamate] | exhibit anti-tumor activity | > 14 | 70 | > 1000 | – | – | Tumour inhibition % ([3]; 5×250 mg/kg i.p.): 61%; Lethality ([3]; 5×250 mg/kg i.p.): 0/8 |
| CC(Cl)CN(N=O)C(=O)O[C@H]1CC[C@@]2(C)C(=CC[C@@H]3[C@@H]2CC[C@]2(C)C(=O)CC[C@@H]32)C1 (stereo partly drawn) [dehydroepiandrosterone-3β-N-(2-chloropropyl)-N-nitroso carbamate] | exhibit anti-tumor activity | > 10 | 100 | > 1000 | – | – | – |
